Test results reported in US20170002048A1, “METHOD FOR PURIFYING AND RE[…] BODIES OF SCORPION TOXIN PROTEIN AND THEIR USE” (GUANGZHOU GLAM BIOTECHNOLOGY CO., LTD., priority 2015, published 2017).

System: HepG2 tumor
Test: Anti-tumor activity in vivo, HepG2 mice model
Set-up: species or system CD-1 nu/nu mice
Conditions: CHis6-rAGAP 1 and 2 mg/kg, 5-FU 25 mg/kg, every 2 days
Description: The CD-1 nu/nu mice (thymus removed, bodyweight 16˜18 g, half male and half female) were purchased from Shanghai Experiment Animal Center of Chinese Academy of Sciences. The mice were subcutaneously injected 5×10^6 HepG2 cells to make a model, when the tumor volume was grew to about 100 mm^3, the mice were randomized into four groups, 10 mice in each group, the experiment groups were respectively injected 1 mg/kg and 2 mg/kg of CHis6-rAGAP, the positive control group were injected 25 mg/kg of 5-FU, the negative control group was injected with normal saline, the volumes were all 200 μl/2 days. The change of tumor volume and bodyweight of the mice were determined every 2 days, after 18 days the mice were killed, and the tumor were taken out. […] In order to evaluate the influence of CHis6-rAGAP and 5-FU on life quality of the mice, change of mice bodyweight was also determined during the experiment. […] Furthermore, after 18 days of drug administration, there was no death case in the mice of CHis6-rAGAP administration group, whereas 40% of the mice in 5-FU group were dead.

O=c1[nH]cc(F)c(=O)[nH]1 [5-FU]
death of mice after 18 days of drug administration: 40% | influence on bodyweight of the mice (18 days): reduced significantly
